Source: patent publication US8592374B2, “Neurotrophic peptides” (Research Foundation for Mental Hygiene, Inc., priority 2007, dated 2013)
“Also recorded” adds a separate entry of the source. Peptide text beside a SMILES is read from it. * marks the point of attachment. Adamantane1carbonyl = O=C(C12CC3CC(CC(C3)C1)C2)*; X1 = NC(=O)C12CC3CC(CC(N*)(C3)C1)C2

Legend:
[1] = General examination (physical state, body weight, exploratory activity, swim speed, floating); type: in vivo, mice; conditions: 25 nmol/day for 35 days
Method: All in vivo studies for characterization of compounds (stereology and behavioral analysis) were performed on 8-10-month-old female retired breeders of C57Bl6 background. Animals were acclimatized for at least 3 weeks to exclude occasional pregnant mice from the studies. Mice were group-housed (3 animals per cage) with a 12:12 hours light/dark cycle and with free access to food and water.
(§1) For the compound treatment, mice (8 animals/group) received subcutaneous implants of extended release depot pellets containing P21 or P22 at 25 nmol/day for 35 days of continuous dosing (Innovative Research of America, USA). For the control group (8 animals), pellets consisted of the carrier polymer only. Mice were anesthetized with 2.5% Avertin (0.38 ml for a 25 g animal). Under sterile conditions, pellets were implanted subcutaneously along the anterolateral aspect of the right shoulder with a precision trochar (Innovative Research of America). After recovery of anesthesia, animals were transferred to the animal colony. No complications associated with the implantation and treatment were observed. All procedures on animals were conducted in accordance with approved protocols from our Institutional Animal Welfare Committee.
The physical state and condition of animals were carefully monitored throughout the treatment by evaluating grooming, physical state and clasping reflex. Body weight was also recorded.
The test used was an adaptation of the procedure previously described by Sargolini and collaborators (Sargolini, F., et al. Behav Brain Res 138 (2003):153-63). The testing apparatus was a classic open field (i.e. a PVC square arena, 50×50 cm, with walls 40 cm high). The open field was placed in a part of the room separated from the experimentator with a black opaque curtain. The open field was surmounted by a video camera connected to a computer. Three objects were employed in this task. The general procedure consisted of three different phases: a familiarization phase (1 session of 20 min), a sample phase, and a test phase. On the first days, mice were individually submitted to the familiarization session during which they were introduced in the empty arena in order to become familiar with the apparatus. This familiarization session allowed to record a baseline level of locomotor activity (measuring the distance covered in the open field) and of anxiety (measuring the time the animals spent in the centre of the arena during the first five minutes). On the second day each mouse was first submitted to the sample phase (session 1, ten minutes) for which two identical objects were placed in a symmetric position from the centre of the arena. After a 15 minute delay during which the mouse returned to its home cage, it was reintroduced in the arena to perform the test phase (session 2, 10 min). The mouse was then exposed to two objects: a familiar object (previously presented during the sample phase) and a new object, placed at the same location as during the sample phase. Data collection was performed using a video tracking system (Smart version 2.0.14 software, Pan Lab/San Diego Instruments). Object discrimination was calculated as follows: OD=(time spent close to new object)/(time spent close to new object)+(time spent close to old object)×100

normal adult mice [2] = experiment: Open field, time in the centre of the arena (anxiety); type: in vivo; conditions: 25 nmol/day, first five minutes of familiarization session
Method: as §1
(§2) The test used was an adaptation of the procedure previously described by Sargolini and collaborators (Sargolini, F., et al. Behav Brain Res 138 (2003):153-63). The testing apparatus was a classic open field (i.e. a PVC square arena, 50×50 cm, with walls 40 cm high). The open field was placed in a part of the room separated from the experimentator with a black opaque curtain. […] Object discrimination was calculated as follows: OD=(time spent close to new object)/(time spent close to new object)+(time spent close to old object)×100

normal adult mice [3] = experiment: One-trial object recognition test; type: in vivo; conditions: 25 nmol/day, test phase after 15 minute delay
Method: as §1
In the one-trial object recognition task, animals are exposed to two different objects which they have to identify as novel or familiar based on the memory of an earlier experience with one of the two objects they encountered in the same open field. The familiar object is explored shorter than the novel encountered one because the representation of the former is still available in memory. The one-trial object recognition task tests some aspects of episodic memory but is limited to memory of an object (what), the location of an object (where), and the context in which it was encountered (which). However, the temporal dimension of the episode remains inaccessible to the experimentator, and because of this reason this task in animals is considered a test of short term memory.
as §2, with “high).” for “high). The open field was placed in a part of the room separated from the experimentator with a black opaque curtain.”

normal adult mice [4] = experiment: Spatial reference memory task in the water maze; type: in vivo
Method: as §1
Spatial reference learning and memory were evaluated in the water maze using a procedure adapted from that previously described by Morris et al. (Morris, R. G., et al. Nature 297 (1982): 681-3). The test required that mice used a spatial navigational strategy based on a spatial representation of the environment to find a fixed submerged escape platform. The procedure was performed in a 180 cm diameter circular tank. The pool was filled with water (21±1° C.) made opaque by adding white non-toxic paint. Acquisition started with the escape platform (15 cm diameter submerged 1 cm below water surface) in the Northwest quadrant and each animal was given 90 s to find the platform. […] At the end of each trial, the mouse was left on the platform for 20 seconds, then dried and returned to its home cage until the next trial. Five such acquisition trials were given on each day for four consecutive days. A test for retention, or probe trial (PT), was given 24 hours later. During the probe trial the mouse was allowed to swim in the tank without the escape platform for 60 seconds. This was followed by second and third probe trials 15 and 30 days after the first probe trial.
The measures of learning were the time and distance covered to reach the escape platform. For the probe trial, the tank was divided into four imaginary quadrants and a small zone where the escape platform had been. The measure of retention was calculated as the ratio of time spent or distance covered in target quadrant over that in the three other quadrants.
Mouse behavior in the water maze was monitored by a Samsung Digital Camera (SDC 4304) mounted to the ceiling and tracked and timed by a SMART (Pan Lab/San Diego Instruments) version 2.0.14 software.

[5] = system: adult hippocampal progenitors in the dentate gyrus; experiment: Neurogenesis in the DG (BrdU-positive and BrdU/NeuN-double-positive cells); type: in vivo, mice; conditions: 25 nmol/day for 35 days
Method: as §1
To investigate neurogenesis, BrdU (Sigma, USA) was given as two daily i.p. injections (100 mg/kg/dose) for five days starting on day 2 of compounds treatment.
At the end of the behavioral experiment, animals were anesthetized with an overdose of sodium pentobarbital (120 mg/kg) and transcardially perfused with 0.1 M phosphate buffered saline (PBS). After perfusion, the brains were removed from the skull, the left hemisphere was immediately frozen for future biochemical analysis and the right hemisphere was immersion fixed in 4% paraformaldehyde in 0.1 M PBS for at least 24 hours at room temperature. Tissues were equilibrated and stored in 30% sucrose solution at 4° C. until sectioning. The brains were sectioned sagittaly on a freezing sliding microtome at 40 μm through the entire hippocampus and the sections were stored in glycol anti-freeze solution (Ethylene glycol, glycerol and 0.1 M PBS in 3:3:4 ratio) at −20° C. until further processing.
For double labeling of BrdU and NeuN, brain sections were pretreated with 2 M HCl at 37° C. for 30 min and neutralized with 0.1 M borate buffer (pH 8.5) for 10 minutes. […]
Neurogenesis in the dentate gyrus was evaluated by counting the number of BrdU-positive and BrdU/NeuN-double-positive cells in the dentate gyrus (DG). The number of positive cells was determined in every fifth section in a series of 40 μm sagittal sections throughout the DG using unbiased sterology. All BrdU-positive cells in the subgranular zone (SGZ) and granule cell layer (GCL) were counted using a fluorescent microscope (Nikon Eclipse 90i, Nikon Corporation, Japan). Double labeled cells were assessed by a confocal imaging system (D-Eclipse C1, Nikon Corporation). […] For each brain, at least 100 cells were counted based on coefficient of error determinations.

[6] = General examination (physical state, body weight, exploratory activity, swim speed, floating); type: in vivo, mice; conditions: 25 nmol/day for 35 days; remark: listed apart in the source
AHPs = experiment: Cell-based assay for differentiation of AHPs with CNTF (βIII-tubulin/DAPI); conditions: 1 hr fixation
Method: βIII-tubulin antigenicity is compromised by fixation, although longer fixation improves attachment to the plates. Therefore, plates with different coatings for their suitability to be used in differentiation assay using CNTF (0.1, 1, 10, 100 ng/ml) were tested. Coating matrices tested: • poly D-lysine • poly D-lysine/laminin • poly L-ornithine/laminin • polyethyleneimine • collagen I • fibronectin The best immunostaining for βIII-tubulin was with 10 min fixation. However, since less cells were lost with 1 hr fixation, the differentiation assay with CNTF was performed with 1 hr fixation. The best differentiation was achieved on polyethyleneimine coated plates using the ratio of βIII-tubulin immunostaining to DAPI nuclear staining (cell number) as % of control as a relative measure of differentiation.

[7] = cited from earlier work
[8] = system: embryonic chick ciliary neurons; conditions: embryonic chick ciliary neurons in culture; cited from earlier work
human CNTF receptor = biological target: T1, human CNTF receptor (Homo sapiens, UniProt P26992); conditions: cited from earlier work
T1 sequence (P26992 23-342): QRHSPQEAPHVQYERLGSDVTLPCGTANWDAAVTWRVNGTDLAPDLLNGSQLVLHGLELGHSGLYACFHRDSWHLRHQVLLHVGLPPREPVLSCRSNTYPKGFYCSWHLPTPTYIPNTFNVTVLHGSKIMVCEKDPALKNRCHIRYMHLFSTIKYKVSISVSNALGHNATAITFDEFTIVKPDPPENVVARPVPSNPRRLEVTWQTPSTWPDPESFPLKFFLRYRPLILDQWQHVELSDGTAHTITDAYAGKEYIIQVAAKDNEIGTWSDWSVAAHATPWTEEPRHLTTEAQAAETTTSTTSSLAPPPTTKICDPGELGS

CC(C)C[C@H](NC(=O)CNC(=O)CNC(=O)[C@H](CC(=O)O)NC(=O)C12CC3CC(CC(C3)C1)C2)C(=O)NC12CC3CC(C1)CC(C(N)=O)(C3)C2 [Peptide P22, 1-AdCO-DGGL^AG-NH2] (Adamantane1carbonyl-DGGL-X1)
exploratory behavior / exploratory activity ([1]; open field): no alteration; also recorded: did not induce any effect
body weight ([1]; subcutaneous pellets): no alteration; also recorded: did not induce any effect
general physical state ([1]; subcutaneous pellets): no alteration
level of anxiety (time in the center of the open field) (normal adult mice [2]): spent more time in the center of the open field than control animals; also recorded: reduced anxiety level
time exploring the new object versus the familiar object (normal adult mice [3]): did not preferentially explore the novel object
effect in the probe trials (normal adult mice [4]; three probe trials): No statistically significant effect
escape latencies to reach the submerged platform (learning) (normal adult mice [4]; training day 2 to 4, compared to control group): significantly reduced; also recorded: increased performance in the learning of spatial memory task
BrdU positive cells in the DG (GCL and SGZ) [5]: No significant alteration in neurogenesis
BrdU/NeuN positive cells in the DG (GCL) [5]: No significant changes
floating behavior in the water maze task (sign of depression or locomotor impairment) [6]: no floating behavior was observed
swim speed ([6]; water maze): no alteration; also recorded: did not induce any effect

B1: CNTF: Ciliary neurotrophic factor, a survival factor for various neuronal cell types; 200 amino acid protein (protein, UniProt P26441 1-200, looked up)
chain: MAFTEHSPLTPHRRDLCSRSIWLARKIRSDLTALTESYVKHQGLNKNINLDSADGMPVASTDQWSELTEAERLQENLQAYRTFHVLLARLLEDQQVHFTPTEGDFHQAIHTLLLQVAAFAYQIEELMILLEYKIPRNEADGMPINVGDGGLFEKKLWGLKVLQELSQWTVRSIHDLRFISSHQTGIPARGSHYIANNKKM
modifications: full-length
notes: Ciliary neurotrophic factor, a survival factor for various neuronal cell types; 200 amino acid protein
βIII-tu/DAPI (% of Control) (100 ng/ml CNTF) (AHPs; coating poly D-lysine): 175 % of Control
βIII-tu/DAPI (% of Control) (100 ng/ml CNTF) (AHPs; coating poly D-lysine/laminin): 240 % of Control
βIII-tu/DAPI (% of Control) (100 ng/ml CNTF) (AHPs; coating poly L-ornithine/laminin): 330 % of Control
βIII-tu/DAPI (% of Control) (100 ng/ml CNTF) (AHPs; coating poly ethyleneimine): 480 % of Control
side effects of administration in human clinical trials [7]: anorexia, skeletal muscle loss, hyperalgesia, cramps, and muscle pain

B2: recombinant rat CNTF: recombinant rat ciliary neurotrophic factor (protein, UniProt P20294 1-200, looked up)
Ciliary neurotrophic factor: MAFAEQTPLTLHRRDLCSRSIWLARKIRSDLTALMESYVKHQGLNKNINLDSVDGVPVASTDRWSEMTEAERLQENLQAYRTFQGMLTKLLEDQRVHFTPTEGDFHQAIHTLMLQVSAFAYQLEELMVLLEQKIPENEADGMPATVGDGGLFEKKLWGLKVLQELSQWTVRSIHDLRVISSHQMGISALESHYGAKDKQM
biological activity in supporting survival and neurite outgrowth, relative to recombinant human CNTF [8]: four times better
affinity for the human CNTF receptor relative to human CNTF (human CNTF receptor): higher affinity
